The source of these data is EP4603492A1, “SULFONAMIDE COMPOUND AND HARMFUL-ARTHROPOD-CONTROLLING COMPOSITION CONTAINING SAME” (Sumitomo Chemical Company, Limited, priority 2022, dated 2024).

Type in all cases: in vivo
Test [1] has as its system diamondback moth (Plutella xylostella). Put plainly: Test method 10: sprayed cabbage seedlings, 3rd instar larvae of diamondback moth (Formulation Example 5). Particulars: 120 h, spray 20 mL/seedling, after 5 days, 25°C; for mortality at 200 ppm: Test Example 10-1, 200 ppm; for mortality at 50 ppm: Test Example 10-2, 50 ppm. As to the method: (§1) Each test compound is formulated according to the method mentioned in Formulation Example 5 to obtain each formulation, and water containing 0.03% by volume of Shindaine (registered trademark) is added thereto to prepare a diluted solution containing a prescribed concentration of each test compound.
Each of the diluted solutions is sprayed over cabbage (Brassicae oleracea) seedlings (on the developmental stage of the third to fourth true leaf) planted in a container in a ratio of 20 mL/seedling. Thereafter, ten 3rd instar larvae of diamondback moth (Plutella xylostella) are released into the container. After 5 days, the number of the surviving insects is counted, and the mortality of insects is calculated by the following equation. [formula]
The test was carried out by making the prescribed concentration 200 ppm and using the following present compounds as a test compound according to the test method 10.
The test was carried out by making the prescribed concentration 50 ppm and using the following present compounds as a test compound according to the test method 10.

In test [2] the test system is western corn rootworm (Diabrotica virgifera virgifera). Put plainly: whole plant or invertebrate. Particulars: 120 h. As for the experimental part:
Each test compound is dissolved in 50 µL of a mixed solution of polyoxyethylene sorbitan monococoate and acetone (at a volume ratio of 5:95) per 1 mg of the test compound. Water containing 0.03% by volume of Shindaine (registered trademark) is added thereto to prepare a diluted solution containing a prescribed concentration of each test compound.
Young seedlings of corns (Zea mays) are immersed in each of the diluted solutions for 30 seconds. Thereafter, two seedlings are placed in a petri dish (diameter: 90 mm), and ten 2nd instar larvae of western corn rootworm (Diabrotica virgifera virgifera) are released into the dish. After 5 days, the number of the […] is counted, and the mortality of insects is calculated by the following equation. Mortality (%) = (1−Numberofdeadinsects/10) × 100 [formula]
The test was carried out by making the prescribed concentration 200 ppm and using the following present compounds as a test compound according to the test method 5.

Test [3] has as its system cotton aphids (Aphis gossypii). Put plainly: Test method 1: spray on cucumber seedlings infested with cotton aphids (Formulation Example 1). Particulars: 120 h, Test Example 1-1, spray 10 mL/seedling, 5 days after spraying, 25°C, read-out: control value. As for the experimental part:
(§2) Each test compound is formulated according to the method mentioned in Formulation Example 1 to obtain each formulation, and water containing 0.03% by volume of Shindaine (registered trademark) is added thereto to prepare a diluted solution containing a prescribed concentration of each test compound.
Approximately 30 cotton aphids (Aphis gossypii) (all stages of life) are released onto cucumber (Cucumis sativus) seedlings (on the developmental stage of the second true leaf) planted in a container. After 1 day, each of the diluted solutions is sprayed over the seedlings in a ratio of 10 mL/seedling. After additional 5 days, the number of the surviving insects is examined and the control value is calculated by the following equation. Control value (%) = {1−(Cb×Tai)/(Cai×Tb)} × 100 [formula] where symbols in the equation represent the following meanings: • Cb: Number of test insects in non-treated area; • Cai: Number of surviving insects at the time of the investigation in non-treated area; • Tb: Number of test insects in treated area; and • Tai: Number of surviving insects at the time of the investigation in treated area.
Here, the "non-treated area" represents an area where the same treatment procedure as that of the treated area is carried out except for not using each test compound.
The test was carried out by making the prescribed concentration 500 ppm and using the following present compounds as a test compound according to the test method 1.

In test [4] the test system is cotton aphids (Aphis gossypii). The test can be described thus: whole plant or invertebrate. Particulars: topical, 120 h, read-out: control value. As for the experimental part: Each test compound is formulated according to the method mentioned in Formulation Example 5 to obtain each formulation, and water containing 0.03% by volume of […] (registered trademark) is added thereto to prepare a diluted solution containing a prescribed concentration of each test compound. Approximately thirty cotton aphids (Aphis gossypii) (all stages of life) are released onto cucumber (Cucumis sativus) seedlings (on the developmental stage of the second true leaf) planted in a container. After 1 day, each of the diluted solutions is sprayed over the seedlings in a ratio of 10 mL/seedling. After additional 5 days, the number of the surviving insects is examined and the control value is calculated by the following equation. Control value (%) = {1-(Cb×Tai)/(Cai×Tb)} × 100 [formula] where symbols in the equation represent the following meanings: • Cb: Number of test insects in non-treated area; • Cai: Number of surviving insects at the time of the investigation in non-treated area; • Tb: Number of test insects in treated area; and • Tai: Number of surviving insects at the time of the investigation in treated area. Here, the "non-treated area" represents an area where the same treatment procedure as that of the treated area is carried out except for not using each test compound. The test was carried out by making the prescribed concentration 200 ppm and using the following present compounds as a test compound according to the test method 11. […] The test was carried out by making the prescribed concentration 50 ppm and using the following present compounds as a test compound according to the test method 11.

Test [5] concerns diamondback moth (Plutella xylostella). The test can be described thus: Test method 4: sprayed cabbage leaves, 2nd instar larvae of diamondback moth (Formulation Example 1). Particulars: 120 h, Test Example 4-1, spray 20 mL/seedling, after 5 days, 25°C. As to the method:
as §2
Each of the diluted solutions is sprayed over cabbage (Brassicae oleracea) seedlings (on the developmental stage of the second to third true leaf) planted in a container in a ratio of 20 mL/seedling. Thereafter, the stem and leaf of the seedlings are cut out, and placed in a container lined with a filter paper. Five 2nd instar larvae of diamondback moth (Plutella xylostella) are released into the container. After 5 days, the number of the surviving insects is counted, and the mortality of insects is calculated by the following equation. [formula]
The test was carried out by making the prescribed concentration 500 ppm and using the following present compounds as a test compound according to the test method 4.

Test [6] concerns common cutworm (Spodoptera litura). Put plainly: Test method 9: sprayed cabbage seedlings, 3rd instar larvae of common cutworm (Formulation Example 5). Particulars: 144 h, Test Example 9-1, spray 20 mL/seedling, after 6 days, 25°C. As to the method: as §1
Each of the diluted solutions is sprayed over cabbage (Brassicae oleracea) seedlings (on the developmental stage of the third to fourth true leaf) planted in a container in a ratio of 20 mL/seedling. Thereafter, ten 3rd instar larvae of common cutworm (Spodoptera litura) are released into the container. After 6 days, the number of the surviving insects is counted and the mortality of insects is calculated by the following equation. [formula]
The test was carried out by making the prescribed concentration 200 ppm and using the following present compounds as a test compound according to the test method 9.

The test system is the same in test [7]. The test can be described thus: Test method 3: sprayed cabbage leaves, 2nd instar larvae of common cutworm (Formulation Example 1). Particulars: 120 h, Test Example 3-1, spray 20 mL/seedling, after 5 days, 25°C. As for the experimental part:
as §2
Each of the diluted solutions is sprayed over cabbage (Brassicae oleracea) seedlings (on the developmental stage of the second to third true leaf) planted in a container in a ratio of 20 mL/seedling. Thereafter, the stem and leaf of the seedlings are cut out, and placed in a container lined with a filter paper. Five 2nd instar larvae of common cutworm (Spodoptera litura) are released into the container. After 5 days, the number of the surviving insects is counted, and the mortality of insects is calculated by the following equation. [formula]
The test was carried out by making the prescribed concentration 500 ppm and using the following present compounds as a test compound according to the test method 3.

In test [8] the test system is common house mosquito (Culex pipiens pallens). The test can be described thus: Test method 12: final instar larvae of common house mosquito released into diluted solution. Particulars: 24 h, read-out: control value. As for the experimental part: Each test compound is formulated according to the method mentioned in Formulation Example 1 to obtain each formulation, and water is added thereto to prepare a diluted solution containing a prescribed concentration of each test compound.
Thirty final instar larvae of common house mosquito (Culex pipiens pallens) are released into the diluted solution and, after 1 day, the state of the common house mosquito larvae is examined and the mortality of insects is calculated by the following equation. [formula]
The test was carried out by making the prescribed concentration 3.5 ppm and using the following present compounds as a test compound according to the test method 12.

Test [9] has as its system German cockroach (Blattella germanica). Put plainly: Test method 6: coated container contact test, German cockroach male adults. Particulars: 72 h, read-out: mortality of insects. As for the experimental part: An acetone solution prepared by making the concentration of the test compound 800 ppm is poured into a 50 mL container, and the inner face of the container is uniformly coated with the test compound so as to make the coating amount of 40 mg/m^2, followed by drying.
Five German cockroach (Blattella germanica) male adults are released into the container, and the container is then covered with a lid. After the prescribed time is elapsed, the state of the German cockroach are examined. The mortality of insects is calculated by the following equation. [formula]
The test was carried out by making the prescribed elapsed time 3 days and using the following present compounds as a test compound according to the test method 6.

In test [10] the test system is houseflies (Musca domestica). Put plainly: Test method 8: coated container contact test, adult male houseflies. Particulars: 24 h, read-out: mortality of insects. As for the experimental part: An acetone solution prepared by making the concentration of the test compound 800 ppm is poured into a 20 mL container, and the inner face of the container is uniformly coated with the test compound so as to make the coating amount of 40 mg/m^2, followed by drying.
Five adult male houseflies (Musca domestica) are released into the container, and the container is then covered with a lid. After the prescribed time is elapsed, the state of the houseflies are examined. The mortality of insects is calculated by the following equation. [formula]
The test was carried out by making the prescribed elapsed time 1 day and using the following present compounds as a test compound according to the test method 8.

For the molecule `CNS(=O)(=O)c1c(-c2ccc(OCC(F)(F)C(F)F)nn2)nc2ccc(I)cn12` [compound 3], the mortality at 200 ppm was at least 80% in test [1], at least 80% in test [2], at least 90% in test [4] and at least 80% in test [6]. The mortality at 50 ppm was at least 80% in test [1] and at least 90% in test [4]. In addition, the mortality at 500 ppm in test [3] is at least 90%; in test [5], at least 80%; in [7], at least 80%.
In the case of `CNS(=O)(=O)c1c(-c2cnc(OCC(F)(F)C(F)(F)F)cn2)nc2ccc(Br)cn12` [compound 1], the mortality at 3.5 ppm in test [8] was at least 90%. In addition, the mortality at 40 mg/m2, 40 mg/m2 in test [9] and in test [10] was at least 80% each time. Further, the mortality at 200 ppm in test [1] is at least 80%; in test [2], at least 80%; in test [4], at least 90%; in [6], at least 80%. Further, the values for the mortality at 50 ppm in [1] and in test [4] were at least 80% and at least 90%, respectively. Also, the figures for the mortality at 500 ppm in test [3], in [5] and in test [7] were at least 90%, at least 80% and at least 80%, respectively.
As for `CCNS(=O)(=O)c1c(-c2cnc(OCC(F)(F)C(F)(F)F)cn2)nc2ccc(Br)cn12` [compound 2], the mortality at 3.5 ppm in [8] was at least 90%. The mortality at 40 mg/m2, 40 mg/m2 in [9] and in [10] was at least 80% in each case. Moreover, the mortality at 200 ppm is at least 80% in test [1], at least 80% in test [2], at least 90% in [4] and at least 80% in [6]. The mortality at 50 ppm is at least 80% in [1] and at least 90% in test [4]. For the same molecule, the figures for the mortality at 500 ppm in [3], in test [5] and in test [7] were at least 90%, at least 80% and at least 80%, respectively.
Regarding `CN(C)S(=O)(=O)c1c(-c2ccc(OCC(F)(F)C(F)F)nn2)nc2ccc(I)cn12` [compound 4], the mortality at 200 ppm in [1] and in test [6] was at least 80% each time. Further, in test [1], the mortality at 50 ppm is at least 80%. The mortality at 500 ppm was at least 90% in test [3], at least 80% in test [5] and at least 80% in test [7].
